Laboratory results published in the supplement of paper PMC10331698.
± gives the standard deviation of the averaged measurements.

What was measured:
Test in all cases: level (log10 ratio to DMSO vehicle control); higher = higher biomarker level / cell amount than vehicle control
[1] = compound: C=C(C)C(=O)OCC(F)(F)C(F)(F)C(F)(F)F [2,2,3,3,4,4,4-Heptafluorobutyl methacrylate]; conditions: in DMSO
Protocol: (§1)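 BioMAP Diversity Plus panel of 12 human primary cell co-culture systems (3C, 4H, LPS, SAg, BT, BF4T, BE3C, CASM3C, HDF3CGF, KF3CT, MyoF, Mphg). Compounds were added 1 h before stimulation and left for 24 h (MyoF 48 h; BT 72 h for soluble read-outs or 6 d for IgG). Biomarkers were read by ELISA, cytotoxicity by SRB, PBMC viability and proliferation by Alamar Blue. Each well value was divided by the mean of 8 DMSO control wells on the same plate and log10 transformed; duplicate blinded samples were tested at 4 concentrations.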

[2] = compound: O=C(CC(=O)C(F)(F)C(F)(F)C(F)(F)F)c1cccs1 [(Perfluorobutyryl)-2-thenoylmethane]; conditions: in DMSO
Protocol: as §1

[3] = compound: O=C(Cl)C(F)(F)C(F)(F)C(F)(F)C(=O)Cl [Hexafluoroglutaryl chloride]; conditions: in DMSO
Protocol: as §1

Tetrafluorosuccinic acid = compound: O=C(O)C(F)(F)C(F)(F)C(=O)O [Tetrafluorosuccinic acid]; conditions: in DMSO
Protocol: as §1

Perfluoropinacol = compound: OC(C(F)(F)F)(C(F)(F)F)C(O)(C(F)(F)F)C(F)(F)F [Perfluoropinacol]; conditions: in DMSO
Protocol: as §1

[4] = compound: OCC(F)(F)C(F)(F)C(F)(F)C(F)(F)C(F)(F)C(F)(F)F [6:1 Fluorotelomer alcohol]; conditions: in DMSO
Protocol: as §1

[5] = compound: OCCC(F)(F)C(F)(F)C(F)(F)C(F)(F)C(F)(F)C(F)(F)C(F)(F)C(F)(F)F [8:2 Fluorotelomer alcohol]; conditions: 6700 nM; in DMSO
Protocol: as §1

[6] = compound: OCCCC(F)(F)C(F)(F)C(F)(F)C(F)(F)C(F)(F)C(F)(F)C(F)(F)C(F)(F)F [3-(Perfluorooctyl)propanol]; conditions: 6700 nM; in DMSO
Protocol: as §1

| Test System | level (log10) ([1]; 6700 nM) | level (log10) ([1]; 20000 nM) | level (log10) ([1]; 60000 nM) | level (log10) ([2]; 6700 nM) | level (log10) ([2]; 20000 nM) | level (log10) ([3]; 6700 nM) | level (log10) ([3]; 20000 nM) | level (log10) ([3]; 60000 nM) | level (log10) (Tetrafluorosuccinic acid; 6700 nM) | level (log10) (Tetrafluorosuccinic acid; 20000 nM) | level (log10) (Tetrafluorosuccinic acid; 60000 nM) | level (log10) (Perfluoropinacol; 6700 nM) | level (log10) (Perfluoropinacol; 20000 nM) | level (log10) ([4]; 6700 nM) | level (log10) ([4]; 20000 nM) | level (log10) ([4]; 60000 nM) | level (log10) [5] | level (log10) [6] |
| --- | --- | --- | --- | --- | --- | --- | --- | --- | --- | --- | --- | --- | --- | --- | --- | --- | --- | --- |
| lMphg:CD69 | -0.0035 ± 0.044 | -0.0335 ± 0.025 | -0.0615 ± 0.047 | -0.169 ± 0.049 | -0.23 ± 0.013 | -0.021 ± 0.011 | -0.032 ± 0.018 | -0.0135 ± 0.029 | -0.048 ± 0.021 | 0.0125 ± 0.047 | 0.059 ± 0.073 | -0.124 ± 0.026 | -0.256 ± 0.058 | -0.007 ± 0.047 | -0.038 ± 0.052 | -0.055 ± 0.073 | -0.086 ± 0.035 | 0.018 ± 0.04 |
| HDF3CGF:CXCL8/IL-8 | 0.0005 ± 0.0021 | -0.0045 ± 0.0092 | 0.006 ± 0.0028 | 0.01 ± 0.0014 | 0.015 ± 0.0071 | 0.0025 ± 0.012 | -0.0015 ± 0.005 | 0.013 ± 0.018 | -0.01 ± 0.0085 | -0.004 ± 0.0085 | -0.0055 ± 0.0078 | 0.025 ± 0.0071 | 0.02 ± 0.0028 | 0.0005 ± 0.0092 | 0.001 ± 0.013 | -0.046 ± 0.052 | 0.005 ± 0.0099 | -0.0145 ± 0.0092 |
| HDF3CGF:SRB | 0.007 ± 0.02 | -0.002 ± 0.0099 | 0.017 ± 0.0085 | 0.0935 ± 0.005 | 0.0145 ± 0.005 | -0.004 ± 0.0085 | 0.0295 ± 0.0035 | 0.007 ± 0.014 | -0.0125 ± 0.011 | -0.013 ± 0.03 | 0.007 ± 0.044 | -0.027 ± 0.0042 | -0.0055 ± 0.039 | 0.0015 ± 0.067 | -0.003 ± 0.025 | -0.139 ± 0.13 | -0.0335 ± 0.035 | -0.397 ± 0.28 |
| HDF3CGF:M-CSF | 0.0085 ± 0.00071 | 0.0255 ± 0.0078 | 0.0135 ± 0.029 | 0.0085 ± 0.013 | -0.001 ± 0.0028 | -0.003 ± 0.02 | -0.0035 ± 0.016 | 0 ± 0.0099 | -0.0505 ± 0.018 | -0.0735 ± 0.0035 | -0.048 ± 0.0099 | -0.024 ± 0.055 | -0.239 ± 0.049 | 0 ± 0.02 | 0.0355 ± 0.0092 | -0.225 ± 0.03 | -0.044 ± 0.028 | -0.258 ± 0.0092 |
| BE3C:SRB | -0.003 ± 0.011 | -0.0095 ± 0.0064 | -0.001 ± 0.0071 | -0.02 ± 0.0071 | -0.031 ± 0.0071 | 0.0045 ± 0.0092 | 0.0065 ± 0.013 | 0.0115 ± 0.0035 | -0.0045 ± 0.005 | -0.0045 ± 0.0064 | -0.001 ± 0.0028 | -0.0115 ± 0.0035 | -0.0285 ± 0.00071 | -0.0015 ± 0.005 | -0.0055 ± 0.0021 | 0.002 ± 0.011 | -0.0075 ± 0.0021 | -0.002 ± 0.0028 |
| 3C:CD141/Thrombomodulin | -0.009 ± 0.0099 | -0.0145 ± 0.013 | 0.002 ± 0.0071 | -0.113 ± 0.081 | -0.071 ± 0.05 | -0.0455 ± 0.013 | -0.0275 ± 0.0078 | -0.056 ± 0.057 | -0.0285 ± 0.039 | -0.048 ± 0.024 | -0.038 ± 0.0085 | -0.0165 ± 0.0021 | -0.033 ± 0.034 | -0.0155 ± 0.018 | -0.0285 ± 0.0092 | -0.005 ± 0.02 | 0.044 ± 0.0057 | -0.0055 ± 0.019 |
| MyoF:Collagen I | 0.0055 ± 0.013 | 0.001 ± 0.021 | 0.018 ± 0.027 | -0.0255 ± 0.037 | -0.128 ± 0.033 | 0.004 ± 0.013 | -0.0005 ± 0.025 | 0.0145 ± 0.00071 | 0.0045 ± 0.0021 | 0.007 ± 0.0014 | 0.0005 ± 0.012 | 0.044 | -0.006 ± 0.0099 | 0 ± 0.021 | -0.0005 ± 0.012 | 0.0015 ± 0.03 | -0.0025 ± 0.021 | -0.046 ± 0.024 |
| MyoF:MMP-1 | -0.0215 ± 0.023 | -0.0075 ± 0.0092 | 0.0165 ± 0.047 | -0.0565 ± 0.052 | -0.0005 ± 0.018 | -0.043 ± 0.05 | -0.026 ± 0.054 | -0.0195 ± 0.018 | -0.006 ± 0.023 | 0.0025 ± 0.0021 | 0.0535 ± 0.059 | -0.0075 ± 0.012 | -0.027 ± 0.0042 | -0.018 ± 0.014 | -0.0295 ± 0.0078 | 0.15 ± 0.26 | -0.0175 ± 0.011 | 0.0315 ± 0.011 |
| HDF3CGF:TIMP-1 | -0.0075 ± 0.0078 | -0.007 ± 0.024 | -0.019 ± 0.03 | 0.069 ± 0.025 | 0.0215 ± 0.011 | 0.002 ± 0.014 | 0.012 ± 0.025 | 0.0395 ± 0.05 | -0.05 ± 0.023 | -0.017 ± 0.0042 | -0.0155 ± 0.035 | 0.015 ± 0.027 | 0.0205 ± 0.032 | -0.009 ± 0.0085 | -0.022 | -0.014 ± 0.027 | -0.013 ± 0.0042 | -0.105 ± 0.052 |
